US20230257373A1, “QUORUM SENSING INHIBITORS AND METHODS OF USE” (priority 2020, published 2023)
Like-named read-outs stand apart in the source and are kept apart here.

What was measured:
V. campbellii LuxR [1] = target: T1, V. campbellii LuxR (Vibrio harveyi, UniProt P21308); assay: E. coli dual-color bioassay (pKM699 LuxR, pJV064 reporter); type: cell-based; conditions: for Inhibition of LuxR in the E. coli bioassay (in words): GFP and mCherry reporters
T1 construct: expressed in transfected cells; host or cells: E. coli DH10B with pKM699 and reporter pJV064
Description: Previously, we developed a bioassay that consists of a dual-color fluorescent reporter plasmid that reports both LuxR activities: the luxCDABE promoter is activated by LuxR and drives expression of gfp, and the VIBHAR_05222 promoter is repressed by LuxR and drives expression of mCherry (van Kessel et al., 2013b) (FIG. 2A). We used this reporter plasmid in an E. coli strain that also contains a plasmid expressing LuxR from its native promoter.
A bioassay was developed to monitor LuxR function that consists of a dual-color reporter plasmid (pJV064) that reports both activities: the luxCDABE promoter is activated by LuxR and drives expression of gfp, and the 05222 promoter is repressed by LuxR and drives expression of mCherry (van Kessel, Ulrich et al. 2013). This reporter plasmid was used in an E. coli strain that also contains a plasmid (pKM699) expressing LuxR from its native promoter. E. coli cultures containing these two plasmids were grown at 30° C. in LB medium with chloramphenicol (10 μg/ml) and tetracycline (10 μg/ml) to select for the two plasmids. Compounds were added to the cultures at a range of concentrations, and the cultures were incubated for 16 hours shaking at 30° C.
The dual-promoter fluorescence reporter assays were performed using E. coli strain DH10B containing two plasmids: 1) plasmid pJV064 containing the PluxC fused to GFP and P05222fused to mCherry to assess LuxR transcriptional regulation, and 2) plasmid pKM699 expressing V. campbellii luxR under control of its native promoter or empty vector pLAFR2.

[2] = test system: PluxC-gfp reporter in V. campbellii; assay: PluxC-gfp reporter in V. campbellii strains; conditions: Vibrio campbellii
[3] = test system: PluxC-gfp reporter in V. vulnificus; assay: PluxC-gfp reporter in V. vulnificus strains; conditions: Vibrio vulnificus
[4] = test system: PluxC-gfp reporter in V. coralliilyticus; assay: PluxC-gfp reporter in V. coralliilyticus strains
[5] = test system: PluxC-gfp reporter in V. parahaemolyticus; assay: PluxC-gfp reporter in V. parahaemolyticus strains; conditions: Vibrio parahaemolyticus
V. campbellii LuxR [6] = target: T1, V. campbellii LuxR; assay: qRT-PCR and western blots in wild-type V. campbellii; type: cell-based
Description: The Qstatin-treated regulon overlapped with the SmcR regulon by more than 50%, with similar gene expression fold-changes. […] This is important to note because LuxR and HapR proteins are known to autorepress their own expression. To test the effects of adding inhibitors to V. campbellii LuxR, we added 10A, 10B, and 10C to wild-type V. campbellii and used qRT-PCR and western blots to examine the effects on luxR transcript and protein levels. We also examined the transcript levels for luxC and 05222 genes that are directly activated or repressed by LuxR, respectively.
All PCR reactions were performed using Phusion HF polymerase (NEB). T4 polynucleotide kinase (T4 PNK) used in EMSAs and all other enzymes were purchased from NEB and used according to manufacturer's instructions. Site-directed mutagenesis for construction of plasmids expressing mutant proteins was carried out using the Agilent QuikChange II XL Site-Directed Mutagenesis Kit. All oligonucleotides were purchased from Integrated DNA Technologies (IDT).ALL plasmid constructs were confirmed by DNA sequencing (Eurofins). Cloning details for plasmids are available upon request. Western blot analysis was performed as previously described (van Kessel et al., 2013b), except that new anti-LuxR antibodies were generated through Cocalico against purified LuxR protein. In addition, the western blots were probed with anti-RpoB (Neoclone).
Then cells were induced with 50 μM IPTG and grown under the same conditions until cells reached an OD600 of approximately 1, at which 5 mL of cells were collected by centrifugation and frozen in liquid N2. RNA was extracted using a Trizol/chloroform extraction protocol previously described (Rutherford et al., 2011). Quantitative real-time PCR (qRT-PCR) was performed as previously described (Chaparian et al., 2016). Samples were normalized to the internal standard hfq gene. The ΔΔCT values were used to analyze data from three independent biological replicates. Symbols on graphs represent the mean values and error bars represent the standard deviations. All statistical analysis was performed with functions from GraphPad Prism version 8.

Vibrio strains = assay: luxCDABE reporter across five Vibrio species; conditions: each Vibrio strain except V. cholerae
[7] = ATCC25920, read-out: Inhibition (IC50) of the PluxC-gfp reporter, Vcamp ATCC 25920
[8] = read-out: Inhibition (IC50) of the PluxC-gfp reporter, Vcamp BB120
[9] = read-out: Inhibition (IC50) of the PluxC-gfp reporter, Vcamp HY01
[10] = ATCC27562, read-out: Inhibition (IC50) of the PluxC-gfp reporter, Vvul ATCC 27562
[11] = read-out: Inhibition (IC50) of the PluxC-gfp reporter, Vvul CMPC6
[12] = read-out: Inhibition (IC50) of the PluxC-gfp reporter, Vvul YJ016
[13] = read-out: Inhibition (IC50) of the PluxC-gfp reporter, Vcoral OCN 008
[14] = read-out: Inhibition (IC50) of the PluxC-gfp reporter, Vcoral OCN 014
[15] = read-out: Inhibition (IC50) of the PluxC-gfp reporter, Vpara 12-297/B
[16] = read-out: Inhibition (IC50) of the PluxC-gfp reporter, Vpara D4
[17] = read-out: Inhibition (IC50) of the PluxC-gfp reporter, Vpara RIMD 2210633
[18] = read-out: IC50 in the bioassay (approximate)

T1 sequence (P21308 whole entry): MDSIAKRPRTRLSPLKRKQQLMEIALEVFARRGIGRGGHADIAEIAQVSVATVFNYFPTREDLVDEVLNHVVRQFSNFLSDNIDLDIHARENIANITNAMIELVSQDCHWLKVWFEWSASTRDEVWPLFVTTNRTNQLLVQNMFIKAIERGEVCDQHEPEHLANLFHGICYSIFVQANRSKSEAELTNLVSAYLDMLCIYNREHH

SMILES | Inhibition of LuxR in the E. coli bioassay (in words) (V. campbellii LuxR [1]) | IC50 [2, 7] [µM] | IC50 [2, 8] [µM] | IC50 [2, 9] [µM] | IC50 [3, 10] [µM] | IC50 [3, 11] [µM] | IC50 [3, 12] [µM] | IC50 [4, 13] [µM] | IC50 [4, 14] [µM] | IC50 [5, 15] [µM] | IC50 [5, 16] [µM] | IC50 [5, 17] [µM] | IC50 (V. campbellii LuxR [1]; [18]) [µM] | Effect in V. coralliilyticus OCN008 (in words) ([4]; OCN008) | IC50 (V. campbellii LuxR [1]; Table 2, titration, 16 hours, read-out: Inhibition (IC50) of GFP production by LuxR in E. coli bioassay) [µM] | luxC transcripts (V. campbellii LuxR [6]; qRT-PCR, to levels in a ΔluxR strain) | 05222 transcripts (V. campbellii LuxR [6]; qRT-PCR, wild-type cultures) | LuxR protein level (V. campbellii LuxR [6]; western blot, wild-type V. campbellii) | IC50 values lower than Qstatin (Vibrio strains) [fold]
Cc1ccn(S(=O)(=O)c2cccs2)n1 [Compound 8B, 3-methyl-1-(thiophen-2-ylsulfonyl)-1H-pyrazole] | does not show inhibition | 3.9 | 32.4 | 8.7 | 1.9 | 11.5 | 3 | 26.1 | 26.8 | 6.7 | 8.4 | 7.3 | – | – | – | – | – | – | –
O=S(=O)(c1ccc(Br)s1)N1CCCC1 [P0074 H04, 1-((5-bromothiophen-2-yl)sulfonyl)pyrrolidine] | consistent inhibition | – | – | – | – | – | – | – | – | – | – | – | ~35 | – | – | – | – | – | –
Cc1ccn(S(=O)(=O)c2ccc(Cl)s2)n1 [Compound 8C, 1-((5-chlorothiophen-2-yl)sulfonyl)-3-methyl-1H-pyrazole] | – | 1.5 | 6.7 | 2.7 | 0.7 | 4.6 | 1 | 2.7 | 8.4 | 3.3 | 4.5 | 3.8 | 10 to 20 | – | – | – | – | – | –
O=S(=O)(c1cccs1)n1cccc1 [Compound 3B, 1-(thiophen-2-ylsulfonyl)-1H-pyrrole] | – | 2 | 18.9 | 3.6 | 0.9 | 5.9 | 1.5 | 39.2 | 95.1 | 4 | 3.5 | 2.5 | – | most noticeable effect | – | – | – | – | –
O=S(=O)(c1ccc(Br)s1)n1cccc1 [Compound 3A, 1-((5-bromothiophen-2-yl)sulfonyl)-1H-pyrrole] | – | – | 15 | 1.6 | 0.7 | 6.1 | 1.3 | 23.1 | 22.6 | 3 | 2.8 | 2.6 | – | – | – | – | – | – | –
O=S(=O)(c1ccc(Cl)s1)n1cccc1 [Compound 3C, 1-((5-chlorothiophen-2-yl)sulfonyl)-1H-pyrrole] | – | – | 8.3 | – | 0.5 | – | – | 1.3 | – | – | – | 2 | – | – | – | – | – | – | –
O=S(=O)(c1ccccc1)n1cccn1 [Compound 1E, 1-(phenylsulfonyl)-1H-pyrazole] | – | 8.4 | 51.4 | 14.8 | 2.7 | 22 | 4.6 | 49.2 | 66.2 | 8.1 | 12.7 | 11 | – | – | – | – | – | – | –
Cc1ccn(S(=O)(=O)c2ccc(Br)s2)n1 [Compound 8A, 1-((5-bromothiophen-2-yl)sulfonyl)-3-methyl-1H-pyrazole] | – | 0.7 | 3.8 | 1.2 | 0.4 | 2.1 | 0.5 | 4.2 | 9.6 | 2.1 | 2.4 | 2 | 10 to 20 | – | – | – | – | – | –
FC(F)(F)C1CN(c2nc(-c3ccccc3)cs2)CCO1 (stereo not shown) [P2065 E16, 4-(4-phenylthiazol-2-yl)-2-(trifluoromethyl)morpholine] | only a minor inhibition | – | – | – | – | – | – | – | – | – | – | – | – | – | 5.3 | – | – | – | –
O=S(=O)(c1cccs1)n1cccn1 [Compound 1B, 1-(thiophen-2-ylsulfonyl)-1H-pyrazole] | – | 12.8 | 52.6 | 23.2 | 3.4 | 29.6 | 6.5 | 55.7 | 101 | 11.8 | 18.9 | 15.9 | – | – | – | – | – | – | –
O=C(c1ccc(COc2ccc(Cl)cc2)o1)N1CCN(Cc2ccc3c(c2)OCO3)CC1 [P0053 I18, (4-(benzo[d][1,3]dioxol-5-ylmethyl)piperazin-1-yl)(5-((4-chlorophenoxy)methyl)furan-2-yl)methanone] | – | 1.8 | 2 | 4.3 | 0.7 | 4.9 | 3.2 | 18.9 | 10.4 | 8.1 | 6.4 | 2.8 | – | – | – | – | – | – | –
O=S(=O)(c1ccc(Cl)s1)n1cccn1 [Compound 1C, 1-((5-chlorothiophen-2-yl)sulfonyl)-1H-pyrazole] | – | 0.5 | 3.3 | 1 | 0.4 | 2.3 | 0.8 | 9.1 | 9.4 | 1.6 | 12.5 | 1.7 | – | – | – | – | – | – | –
O=S(=O)(c1ccc(Br)s1)n1ccc(-c2ccccc2)n1 [Compound 10A, 1-((5-bromothiophen-2-yl)sulfonyl)-3-phenyl-1H-pyrazole] | most potent | 0.05 | 0.58 | 0.4 | 0.00144 | 0.0339 | 0.00584 | 2.09 | 2.01 | 1.03 | 0.87 | 0.63 | 1 to 2 | – | – | significantly decreased | significantly increased | visible increase | ~10
